# Data from ChEMBL document CHEMBL1125640.
# Experiment: Hill coefficient value of the compound
row,SMILES,Hill coefficient
1,COC(=O)[C@@H]1[C@@H](OC(=O)c2ccccc2)CC2CC[C@H]1N2C,0.95
2,COC(=O)[C@H]1[C@@H](OC(=O)c2ccccc2)CC2CC[C@H]1N2C,2.6
3,COC(=O)C1C2CC[C@H](C[C@H]1OC(=O)c1ccccc1)N2C (stereo in doubt; 3),2.81
4,COC(=O)[C@H]1[C@H]2CCC(C[C@H]1OC(=O)c1ccccc1)N2C,1.3
5,COC(=O)[C@H]1[C@@H](OC(=O)c2ccccc2)C[C@@H]2CC[C@H]1N2C (stereo in doubt; 2),0.96
6,COC(=O)C1C2CC[C@H](C[C@H]1OC(=O)c1ccccc1)N2C (stereo in doubt; 4),0.92
7,COC(=O)[C@H]1[C@@H](OC(=O)c2ccccc2)C[C@@H]2CC[C@H]1N2C (stereo in doubt; 1),0.91
8,COC(=O)[C@@H]1[C@H]2CCC(C[C@H]1OC(=O)c1ccccc1)N2C,1.19
